Laboratory results as given in patent publication US6534542B2, “(2-hydroxy)ethyl-thioureas useful as modulators of α2B adrenergic receptors” (Allergen Sales, Inc., priority 2001, dated 2003).

Target: T1, alpha2B receptor (Homo sapiens, UniProt P18089)
T1 construct: expressed in transfected cells; host or cells: NIH-3T3
T1 sequence (P18089 1-450): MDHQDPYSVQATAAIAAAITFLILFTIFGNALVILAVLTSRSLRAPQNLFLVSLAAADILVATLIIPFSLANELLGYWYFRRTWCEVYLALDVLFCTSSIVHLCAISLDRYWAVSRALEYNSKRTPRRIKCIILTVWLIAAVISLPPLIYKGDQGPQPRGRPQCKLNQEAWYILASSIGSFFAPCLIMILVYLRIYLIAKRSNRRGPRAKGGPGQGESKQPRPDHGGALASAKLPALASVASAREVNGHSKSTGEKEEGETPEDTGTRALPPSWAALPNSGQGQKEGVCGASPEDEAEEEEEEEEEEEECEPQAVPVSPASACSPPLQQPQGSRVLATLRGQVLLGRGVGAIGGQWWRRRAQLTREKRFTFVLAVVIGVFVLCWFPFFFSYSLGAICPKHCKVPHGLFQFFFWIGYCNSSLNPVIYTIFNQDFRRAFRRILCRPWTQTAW
Experiment: Receptor Selection and Amplification Technology (RSAT) assay, alpha2B
Format: cell-based
Conditions: NIH-3T3 cells; for EC50: NA = not active at concentrations less than 10 micromolar, read-out: RSAT EC50 (nM) Alpha 2B; for fraction of activity of the standard (brimonidine) attained, Alpha 2B (number in parenthesis): ratio of maximal effect to that of standard full agonist brimonidine
Source text: The compounds of the invention are agonists of α2 adrenergic receptors, particularly they tend to be specific or selective agonists of α2B and/or to a lesser extent α2C adrenergic receptors, in preference over α2A adrenergic receptors. […] Al., 1995, Pharmacol. Toxicol. 76, pp. 308-311 (incorporated herein by reference) and is also described below. Another reference pertinent to this assay is Conklin et al. (1993) Nature 363:274-6, also incorporated herein by reference.
The RSAT assay measures a receptor-mediated loss of contact inhibition that results in selective proliferation of receptor-containing cells in a mixed population of confluent cells. The increase in cell number is assessed with an appropriate transfected marker gene such as β-galactosidase, the activity of which can be easily measured in a 96-well format. Receptors that activate the G protein, Gq, elicit this response. Alpha2 receptors, which normally couple to Gi, activate the RSAT response when coexpressed with a hybrid Gq protein that has a Gi receptor recognition domain, called Gq/i5^2.
NIH-3T3 cells are plated at a density of 2×10^6 cells in 15 cm dishes and maintained in Dulbecco's modified Eagle's medium supplemented with 10% calf serum. One day later, cells are cotransfected by calcium phosphate precipitation with mammalian expression plasmids encoding p-SV-β-galactosidase (5-10 μg), receptor (1-2 μg) and G protein (1-2 μg). 40 μg salmon sperm DNA may also be included in the transfection mixture. Fresh media is added on the following day and 1-2 days later, cells are harvested and frozen in 50 assay aliquots. Cells are thawed and 100 μl added to 100 μl aliquots of various concentrations of drugs in triplicate in 96-well dishes. Incubations continue 72-96 hr at 37°. After washing with phosphate-buffered saline, β-galactosidase enzyme activity is determined by adding 200 μl of the chromogenic substrate (consisting of 3.5 mM o-nitrophenyl-β-D-galactopyranoside and 0.5% nonidet P-40 in phosphate buffered saline), incubating overnight at 30 and measuring optical density at 420 nm. The absorbance is a measure of enzyme activity, which depends on cell number and reflects a receptor-mediated cell proliferation. The EC50 and maximal effect of each drug at each alpha2 receptor is determined. The efficacy or intrinsic activity is calculated as a ratio of the maximal effect of the drug to the maximal effect of a standard full agonist for each receptor subtype. Brimonidine, also called […], the chemical structure of which is shown below, is used as the standard agonist for the alpha2A, alpha2B and alpha2C receptors. [drawing 6]
The results of the RSAT assay with several exemplary compounds of the invention are disclosed in Table 3. […] NA stands for “not active” at concentrations less than 10 micromolar. As is known EC50 is the concentration at which half of a given compound's maximal activity is observed. It can be seen from the table that the compounds of the invention are specific or selective agonists of α2B and/or α2C adrenergic receptors, with no agonist like activity or only with insignificant agonist-like activity on α2A receptors.

SMILES	EC50	fraction of activity of the standard (brimonidine) attained, Alpha 2B (number in parenthesis)
CC1=CCCCC1CNC(=S)NCCO (stereo not drawn) [Compound 21, 1-(2-Hydroxy-ethyl)-3-(2-methyl-cyclohex-2-enylmethyl)-thiourea]	72 nM	(0.87)
OCCNC(=S)NCC1CCCCC1 [Compound 1, 1-Cyclohexylmethyl-3-(2-hydroxy-ethyl)-thiourea]	204 nM	(0.61)
CCC[C@@H]1CCCC[C@H]1NC(=S)NCCO [Compound 5, 1-(2-Hydroxy-ethyl)-3-((1R,2R)-2-propyl-cyclohexyl)-thiourea]	216 nM	(0.49)
CCC1=CC(CNC(=S)NCCO)CCC1 (stereo not drawn) [Compound 19, 1-(2-Hydroxy-ethyl)-3-(3-ethyl-cyclohex-2-enylmethyl)-thiourea]	55 nM	(0.46)
C[C@H]1CCC[C@H](NC(=S)NCCO)C1 (single isomer, unassigned) [Compound 39, (cis)-1-(2-Hydroxy-ethyl)-3-(3-methyl-cyclohexyl)-thiourea]	80 nM	(0.65)
CC1CC=CCC1CNC(=S)NCCO (stereo not drawn) [Compound 11, 1-(2-hydroxy-ethyl)-3-(6-methyl-cyclohex-3-enylmethyl)-thiourea]	20 nM	(0.93)
OCCNC(=S)NCC1CCCC1 [Compound 9, 1-Cyclopentylmethyl-3-(2-hydroxy-ethyl)-thiourea]	441 nM	(0.62)
CCC1=CC(NC(=S)NCCO)CCC1 (stereo not drawn) [Compound 32, 1-(2-Hydroxy-ethyl)-3-(3-ethyl-cyclohex-2-enyl)-thiourea]	96 nM	(0.37)
CCCC1=CCCCC1NC(=S)NCCO (stereo not drawn) [Compound 30, 1-(2-Hydroxy-ethyl)-3-(2-propyl-cyclohex-2-enyl)-thiourea]	78 nM	(0.71)
CC1C=C(CNC(=S)NCCO)CC1 (stereo not drawn) [Compound 28, 1-(2-Hydroxy-ethyl)-3-(3-methyl-cyclopent-1-enylmethyl)-thiourea]	544 nM	(0.52)
OCCNC(=S)NC1CCCC=C1Br (stereo not drawn) [Compound 29, 1-(2-Bromo-cyclohex-2-enyl)-3-(2-Hydroxy-ethyl)-thiourea]	90 nM	(0.84)
CC1=CC(CNC(=S)NCCO)CCC1 (stereo not drawn) [Compound 20, 1-(2-Hydroxy-ethyl)-3-(3-methyl-cyclohex-2-enylmethyl)-thiourea]	37 nM	(0.78)
OCCNC(=S)NCC1=C(Br)CCCC1 [Compound 18, 1-(2-Bromo-cyclohex-1-enylmethyl)-3-(2-hydroxy-ethyl)-thiourea]	10 nM	(0.77)
CCC1=CCCCC1CNC(=S)NCCO (stereo not drawn) [Compound 22, 1-(2-Hydroxy-ethyl)-3-(2-ethyl-cyclohex-2-enylmethyl)-thiourea]	126 nM	(0.73)
OCCNC(=S)NCC1CCCCCC1 [Compound 10, 1-Cycloheptylmethyl-3-(2-hydroxy-ethyl)-thiourea]	355 nM	(0.54)
CC1CCCCC1NC(=S)NCCO (stereo not drawn) [Compound 41, 1-(2-Methyl-cyclohexyl)-3-(2-hydroxy-ethyl)-thiourea]	27 nM	(0.78)
CC1=CC(NC(=S)NCCO)CC1 (stereo not drawn) [Compound 13, 1-(2-Hydroxy-ethyl)-3-(3-methyl-cyclopent-2-enyl)-thiourea]	111 nM	(0.66)
CCC1=C(CNC(=S)NCCO)CCCC1 [Compound 24, 1-(2-Hydroxy-ethyl)-3-(2-ethyl-cyclohex-1-enylmethyl)-thiourea]	772 nM	(0.71)
OCCNC(=S)NCC1=CCCCC1 [Compound 3, 1-(Cyclohex-1-enylmethyl)-3-(2-hydroxy-ethyl)-thiourea]	877 nM	(0.8)
OCCNC(=S)NCC1C=CCCC1 (stereo not drawn) [Compound 4, 1-(Cyclohex-2-enylmethyl)-3-(2-hydroxy-ethyl)-thiourea]	66 nM	(0.63)
CCCCC1=CCCC1CNC(=S)NCCO (stereo not drawn) [Compound 26, 1-(2-Butyl-cyclopent-2-enylmethyl)-3-(2-hydroxy-ethyl)-thiourea]	816 nM	(0.48)
CC(C)[C@@H]1CC[C@@H](C)C[C@H]1NC(=S)NCCO [Compound 2, 1-(2-Hydroxy-ethyl)-3-(1R,2S,5R-2-isopropyl-5-methyl-cyclohexyl)-thiourea]	189 nM	(0.54)
OCCNC(=S)N[C@H]1CC[C@H](O)CC1 [Compound 7, 1-(4-Hydroxy-cyclohexyl)-3-(2-hydroxy-ethyl)-thiourea]	> 2000 nM	(0.32)
C[C@H]1CCC[C@H](NC(=S)NCCO)C1 (relative stereo) [Compound 38, (trans)-1-(2-Hydroxy-ethyl)-3-(3-methyl-cyclohexyl)-thiourea]	1150 nM	(0.4)
CC1=CC(NC(=S)NCCO)CCC1 (stereo not drawn) [Compound 16, 1-(2-Hydroxy-ethyl)-3-(3-methyl-cyclohex-2-enyl)-thiourea]	58 nM	(0.54)
CC[C@H]1CC[C@H](NC(=S)NCCO)CC1 [Compound 36, (trans)-1-(2-Hydroxy-ethyl)-3-(4-ethyl-cyclohexyl)-thiourea]	97 nM	(0.53)
CC1=C(CNC(=S)NCCO)CCCC1 [Compound 23, 1-(2-Hydroxy-ethyl)-3-(2-methyl-cyclohex-1-enylmethyl)-thiourea]	125 nM	(0.68)
OCCNC(=S)NC1CCCCC1 [Compound 6, 1-Cyclohexyl-3-(2-hydroxy-ethyl)-thiourea]	311 nM	(0.28)
C[C@@H]1CCC[C@@H]1NC(=S)NCCO (relative stereo) [Compound 12, 1-(2-Hydroxy-ethyl)-3-(cis-2-methyl-cyclopentyl)-thiourea]	1530 nM	(0.47)
OCCNC(=S)NCC1=C(Cl)CCCC1 [Compound 17, 1-(2-chloro-cyclohex-1-enylmethyl)-3-(2-hydroxy-ethyl)thiourea]	15 nM	(0.63)
